Laboratory results as given in patent US12377083B2 (WUHAN LL SCIENCE AND TECHNOLOGY DEVELOPMENT CO., LTD., priority 2019, dated 2025).

Key:
[1] = In vitro metabolic stability, mouse liver microsomes; assay type: in vitro ADME; details: 1 mg/mL liver microsome protein, 37° C., read-out: Metabolism in mouse liver microsome T½ min
Method: (§1) The in vitro metabolic stability of the compounds disclosed herein was determined through incubation of liver microsomes of various species. A proper amount of test compound was added into a liver microsome reaction system (1 mg/mL liver microsome protein, 25 U/mL glucose-6 phosphate dehydrogenase, 1 mM NADP, 6 mM D-glucose 6-phosphate and 5 mM MgCl2), and then the mixture was incubated in a water bath kettle at 37° C. to start reaction. At each time point, 100 μL of the reaction system was added into a centrifuge tube containing 400 μL of internal standard working solution (containing a 200 ng/mL solution of dexamethasone, diclofenac, tolbutamide and labetalol in acetonitrile) precooled at 0° C. so as to stop the reaction, and the mixture was then centrifuged at 10,000 g for 10 min at 4° C. The supernatant was collected for LC-MS assay so as to obtain the values of in vitro metabolic half-life of the test compounds in liver microsomes of various species.

[2] = In vitro cytotoxicity assay in HepG2 cells, CCK-8 method; assay type: cell-based; details: human
Method: In vitro cytotoxicity assay for the compounds disclosed herein was performed in HepG2 cells using the CCK-8 method. HepG2 cells (Beina Bio) in the logarithmic growth phase were collected, the concentration of cell suspension was adjusted, and then the cells were plated on a 96-well cell culture plate at 50,000 cells/well. The cells were then incubated overnight in a cell incubator (5% CO2, 37° C.), and after 80-90% cell confluence was achieved, test compounds or vehicle (DMSO) at various concentration gradients were added after medium change. The resulting mixture was incubated in the cell incubator (5% CO2, 37° C.) for 48 h. After the treatment, the medium in the plate was discarded. The plate was washed twice with PBS, added with CCK-8 working solution (Beyotime) at 100 μL per well, and then incubated at 37° C. for 1.5 h away from the light. Absorbance at OD450 nm was measured for each well on a microplate reader, and CC50 value of each compound was analyzed and calculated.

[3] = In vitro metabolic stability, rat liver microsomes; assay type: in vitro ADME; details: 1 mg/mL liver microsome protein, 37° C., read-out: Metabolism in rat liver microsome T½ min
Method: as §1

[4] = In vitro metabolic stability, human liver microsomes; assay type: in vitro ADME; details: 1 mg/mL liver microsome protein, 37° C., read-out: Metabolism in human liver microsome T½ min
Method: as §1

[5] = molecular target: hLPAR1 (human lysophosphatidic acid receptor 1) (Homo sapiens, UniProt Q92633); assay: FLIPR assay of intracellular calcium increase induced by activation of hLPAR1 expressed in CHO-K1 cells; assay type: cell-based; details: CHO-K1 cells expressing hLPAR1, agonist oleoyl-L-α-lysophosphatidic acid 1 μM; read-out: LPAR1 IC50
In short: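 CHO-K1 cells expressing hLPAR1 were loaded with Fluo-4 AM for 1.0 h at 37° C, then preincubated 30 min at room temperature with compound. Oleoyl-LPA was added at 1 μM final, and calcium fluorescence was recorded by FLIPR for 2 min at 1-s intervals to assess antagonism.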

[6] = test system: A2058 (human melanoma cells); assay: A2058 cell scratch (migration) assay with LPA; assay type: cell-based; details: 10 μM LPA, scratch area at 24 h

hLPAR1 (human lysophosphatidic acid receptor 1), sequence (Q92633 whole entry): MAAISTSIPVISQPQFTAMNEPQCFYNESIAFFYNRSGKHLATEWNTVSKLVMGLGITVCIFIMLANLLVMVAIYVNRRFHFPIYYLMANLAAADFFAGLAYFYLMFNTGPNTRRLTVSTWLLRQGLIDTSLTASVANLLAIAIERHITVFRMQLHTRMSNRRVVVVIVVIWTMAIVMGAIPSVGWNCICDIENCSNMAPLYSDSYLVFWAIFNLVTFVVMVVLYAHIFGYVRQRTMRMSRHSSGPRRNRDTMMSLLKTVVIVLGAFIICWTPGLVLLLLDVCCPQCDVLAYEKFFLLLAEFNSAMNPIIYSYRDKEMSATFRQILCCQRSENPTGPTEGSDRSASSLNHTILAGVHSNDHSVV

SMILES	half-life [1]	CC50 at 48 h [2]	half-life [3]	half-life [4]	IC50 [5]	Cell migration inhibition rate (%) [6]
Cc1noc(-c2ccc(O[C@H]3CCC[C@H](C(=O)O)C3)cc2)c1COC(=O)N(C)C1CCCC1 (racemic) [Compound 4, (+/−)-(1S,3S)-3-(4-(4-(((cyclopentyl(methyl)carbamoyl)oxy)methyl)-3-methylisoxazol-5-yl)phenoxy)cyclohexane-1-carboxylic Acid]	167 min	> 200 µM	13.1 min	131 min	–	–
Cc1onc(-c2ccc(O[C@H]3CCC[C@H](C(=O)O)C3)cc2)c1COC(=O)N(C)C1CCCC1 (racemic) [Compound 7, (+/−)-(1S,3S)-3-(4-(4-(((cyclopentyl(methyl)carbamoyl)oxy)methyl)-5-methylisoxazol-3-yl)phenoxy)cyclohexane-1-carboxylic Acid]	149 min	> 200 µM	2.81 min	109 min	< 0.05 µM	A (A: 50-70%)
CN(C(=O)OCc1ocnc1-c1ccc(O[C@H]2CCC[C@H](C(=O)O)C2)cc1)C1CCCC1 (racemic) [Compound 8, (+/−)-(1S,3S)-3-(4-(5-(((cyclopentyl(methyl)carbamoyl)oxy)methyl)oxazol-4-yl)phenoxy)cyclohexane-1-carboxylic Acid]	> 30 min	> 200 µM	> 30 min	> 30 min	0.3 to 10 µM	C (C: 0-30%)
CN(C(=O)OCc1c(-c2ccc(O[C@H]3CCC[C@H](C(=O)O)C3)cc2)cnn1C)C1CCCC1 (racemic) [Compound 11, (+/−)-(1S,3S)-3-(4-(5-(((cyclopentyl(methyl)carbamoyl)oxy)methyl)-1-methyl-1H-pyrazol-4-yl)phenoxy)cyclohexane-1-carboxylate]	> 30 min	> 200 µM	> 30 min	> 30 min	–	A (A: 50-70%)
CN(C(=O)OCc1c(-c2ccc(O[C@H]3CCC[C@H](C(=O)O)C3)c(C(F)(F)F)n2)cnn1C)C1CCCC1 (racemic) [Compound 13, (+/−)-(1S,3S)-3-((6-(5-(((cyclopentyl(methyl)carbamoyl)oxy)methyl)-1-methyl-1H-pyrazol-4-yl)-2-(trifluoromethyl)pyridin-3-yl)oxy)cyclohexane-1-carboxylic Acid]	213 min	> 200 µM	17.2 min	68.8 min	0.05 to 0.3 µM	B (B: 30-50%)
CN(C(=O)OCc1ocnc1-c1ccc(O[C@H]2CCC[C@H](C(=O)O)C2)cn1)C1CCCC1 (racemic) [Compound 14]	> 30 min	> 200 µM	> 30 min	> 30 min	0.3 to 10 µM	C (C: 0-30%)
CN(C(=O)OCc1ocnc1-c1ccc(O[C@H]2CCC[C@H](C(=O)O)C2)c(F)c1)C1CCCC1 (racemic) [Compound 15, (+/−)-(1S,3S)-3-(4-(5-(((cyclopentyl(methyl)carbamoyl)oxy)methyl)oxazol-4-yl)-2-fluorophenoxy)cyclohexane-1-carboxylic Acid]	> 30 min	> 200 µM	> 30 min	> 30 min	0.3 to 10 µM	C (C: 0-30%)
Cc1nc(-c2cnn(C)c2COC(=O)N(C)C2CCCC2)ccc1O[C@H]1CCC[C@H](C(=O)O)C1 (racemic) [Compound 16, (+/−)-(1S,3S)-3-((6-(5-(((cyclopentyl(methyl)carbamoyl)oxy)methyl)-1-methyl-1H-pyrazol-4-yl)-2-methylpyridin-3-yl)oxy)cyclohexane-1-carboxylic Acid]	–	> 200 µM	109 min	619 min	< 0.05 µM	A (A: 50-70%)
CN(C(=O)OCc1c(-c2ccc(O[C@H]3CCC[C@H](C(=O)O)C3)c(F)c2)cnn1C)C1CCCC1 (racemic) [Compound 20, (+/−)-(1S,3S)-3-(4-(5-(((cyclopentyl(methyl)carbamoyl)oxy)methyl)-1-methyl-1H-pyrazol-4-yl)-2-fluorophenoxy)cyclohexane-1-carboxylic Acid]	> 30 min	> 200 µM	> 30 min	> 30 min	< 0.05 µM	B (B: 30-50%)
Cc1nsc(-c2ccc(O[C@H]3CCC[C@H](C(=O)O)C3)cc2)c1COC(=O)N(C)C1CCCC1 (racemic) [Compound 28, (+/−)-(1S,3S)-3-(4-(4-(((cyclopentyl(methyl)carbamoyl)oxy)methyl)-3-methylisothiazol-5-yl)phenoxy)cyclohexane-1-carboxylic Acid]	> 30 min	> 200 µM	< 30 min	> 30 min	< 0.05 µM	A (A: 50-70%)
Cc1nc(-c2onc(C)c2COC(=O)N(C)C2CCCC2)ccc1O[C@H]1CCC[C@H](C(=O)O)C1 (racemic) [Compound 36]	340 min	> 200 µM	28.4 min	145 min	< 0.05 µM	A (A: 50-70%)
Cc1nc(-c2c(Cl)nn(C)c2COC(=O)N(C)C2CCCC2)ccc1O[C@H]1CCC[C@H](C(=O)O)C1 (racemic) [Compound 56, (+/−)-(1S,3S)-3-((6-(3-chloro-5-(((cyclopentyl(methyl)carbamoyl)oxy)methyl)-1-methyl-1H-pyrazol-4-yl)-2-methylpyridin-3-yl)oxy)cyclohexane-1-carboxylic Acid]	–	> 200 µM	–	–	< 0.05 µM	A (A: 50-70%)
Cc1nc(-c2c(C#N)nn(C)c2COC(=O)N(C)C2CCCC2)ccc1O[C@@H]1CCC[C@@H](C(=O)O)C1 (racemic) [Compound 58]	–	> 200 µM	–	–	< 0.05 µM	A (A: 50-70%)
COc1nc(-c2cnn(C)c2COC(=O)N(C)C2CCCC2)ccc1O[C@H]1CCC[C@H](C(=O)O)C1 (racemic) [Compound 59, (+/−)-(1S,3S)-3-((6-(5-(((cyclopentyl(methyl)carbamoyl)oxy)methyl)-1-methyl-1H-pyrazol-4-yl)-2-methoxypyridin-3-yl)oxy)cyclohexane-1-carboxylic Acid]	–	> 200 µM	–	–	< 0.05 µM	B (B: 30-50%)
CN(C(=O)OCc1c(-c2ccc(O[C@H]3CCC[C@H](C(=O)O)C3)c(Cl)n2)cnn1C)C1CCCC1 (racemic) [Compound 61, (+/−)-(1S,3S)-3-((2-chloro-6-(5-(((cyclopentyl(methyl)carbamoyl)oxy)methyl)-1-methyl-1H-pyrazol-4-yl)pyridin-3-yl)oxy)cyclohexane-1-carboxylic Acid]	–	> 200 µM	–	–	< 0.05 µM	A (A: 50-70%)
Cc1nc(-c2cnn(C)c2COC(=O)N(C)C2CCCC2)cnc1O[C@H]1CCC[C@H](C(=O)O)C1 (racemic) [Compound 66]	703 min	–	93.4 min	492 min	< 0.05 µM	B (B: 30-50%)
CN(C(=O)OCc1c(-c2ncc(O[C@H]3CCC[C@H](C(=O)O)C3)cn2)cnn1C)C1CCCC1 (racemic) [Compound 100, (+/−)-(1S,3S)-3-((2-(5-(((cyclopentyl(methyl)carbamoyl)oxy)methyl)-1-methyl-1H-pyrazol-4-yl)pyrimidin-5-yl)oxy)cyclohexane-1-carboxylic Acid]	–	> 200 µM	–	–	0.3 to 10 µM	B (B: 30-50%)
Cc1noc(-c2ccc(C3(C(=O)O)CC3)cc2)c1NC(=O)O[C@H](C)c1ccccc1 [Compound 3]	–	> 200 µM	–	–	0.3 to 10 µM	C (C: 0-30%)
Cc1noc(-c2ccc(O[C@H]3CCC[C@H](C(=O)O)C3)c(C(F)(F)F)n2)c1COC(=O)N(C)C1CCCC1 [Compound 37]	–	> 200 µM	–	–	< 0.05 µM	A (A: 50-70%)
Cc1nc(-c2c(F)nn(C)c2COC(=O)N(C)C2CCCC2)ccc1O[C@H]1CCC[C@H](C(=O)O)C1 [Compound 57]	–	> 200 µM	–	–	< 0.05 µM	A (A: 50-70%)
